# Experimental data as given in ChEMBL document CHEMBL1201862, “PubChem BioAssay data set” (2004).
# The source made the active and inactive calls.
# What was measured:
# [1] = molecular target: Cytochrome P450 2C9 (Homo sapiens, UniProt P11712)
# [2] = molecular target: Cytochrome P450 2C19 (Homo sapiens, UniProt P33261); experiment: Cytochrome panel assay with activity outcomes. Panel member name: p450-cyp2c19 Compounds with AC50 equal or less than 10 uM are considered active; type: functional
# [3] = Trypanosoma cruzi growth suppression in host cells – NIH3T3 host cells, beta-gal luminescence, confirmation (AID 2044); type: functional, cell-based;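 also: intracellular parasites grown in NIH/3T3 mouse fibroblasts as host cells; luminescent beta-galactosidase reporter signal from transgenic T. cruzi replicating inside host cells; inhibitors lower the luminescence signal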
# [4] = NIH3T3 cell viability loss – ATP luminescence, mouse fibroblasts, counter-screen, dose response (AID 2010); type: functional, cell-based;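 also: cells exposed to compound for about 90 hours before reading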
# [5] = system: Streptococcus; experiment: GAS UMAA2166 growth inhibition – luminescence, BacTiterGlo, counter-screen for streptokinase expression inhibitor project, dose response (AID 1915); type: functional, organism-based;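 also: potency for reduction of bacterial viability or growth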
# [6] = molecular target: T1, Streptokinase A (Streptococcus pyogenes serotype M1, UniProt P10520); experiment: viability-normalized secreted streptokinase activity reduction – plasminogen activation absorbance, OD405, dose response (AID 1914); type: functional, Streptococcus pyogenes M1 GAS;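 also: secreted streptokinase activity via plasminogen activation per viability signal from cell pellet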
# T1 sequence (P10520 whole entry): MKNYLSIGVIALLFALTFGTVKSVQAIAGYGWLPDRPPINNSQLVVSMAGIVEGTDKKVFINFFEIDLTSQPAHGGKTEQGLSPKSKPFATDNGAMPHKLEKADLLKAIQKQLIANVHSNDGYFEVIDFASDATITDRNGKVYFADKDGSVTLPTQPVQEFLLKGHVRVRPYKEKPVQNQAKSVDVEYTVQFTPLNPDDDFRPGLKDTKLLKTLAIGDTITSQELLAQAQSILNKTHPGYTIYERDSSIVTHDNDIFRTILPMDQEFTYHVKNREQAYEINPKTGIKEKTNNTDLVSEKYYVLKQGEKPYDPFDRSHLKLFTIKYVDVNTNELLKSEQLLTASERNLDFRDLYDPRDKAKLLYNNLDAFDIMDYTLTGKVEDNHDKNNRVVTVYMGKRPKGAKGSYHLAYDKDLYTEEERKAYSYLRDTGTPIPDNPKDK
# [7] = system: Streptococcus sp. 'group A'; experiment: Streptococcus pyogenes SK(-)GAS viability under kanamycin – luminescence, BacTiterGlo, confirmation, counter-screen for streptokinase expression inhibitor project, dose response (AID 1900); type: functional, organism-based
# [8] = molecular target: T2, Cytochrome P450 1A2 (Homo sapiens, UniProt P05177);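 also: PubChem cytochrome P450 panel assay, CYP1A2 panel member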
# T2 sequence (P05177 whole entry): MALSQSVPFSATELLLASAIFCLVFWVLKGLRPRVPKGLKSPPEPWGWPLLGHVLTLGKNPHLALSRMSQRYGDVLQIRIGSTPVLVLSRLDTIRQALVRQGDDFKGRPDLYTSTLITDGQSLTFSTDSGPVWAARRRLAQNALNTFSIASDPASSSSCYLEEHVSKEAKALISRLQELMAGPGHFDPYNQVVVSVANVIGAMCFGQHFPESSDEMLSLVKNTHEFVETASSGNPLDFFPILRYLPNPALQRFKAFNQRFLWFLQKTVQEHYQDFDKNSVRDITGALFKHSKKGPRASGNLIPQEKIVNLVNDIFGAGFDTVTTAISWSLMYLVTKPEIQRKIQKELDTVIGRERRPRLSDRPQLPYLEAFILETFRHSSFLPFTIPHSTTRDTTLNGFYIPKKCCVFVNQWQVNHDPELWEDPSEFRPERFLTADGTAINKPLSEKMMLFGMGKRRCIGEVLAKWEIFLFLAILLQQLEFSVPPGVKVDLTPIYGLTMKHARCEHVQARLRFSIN
# Sequence of Cytochrome P450 2C19 (P33261 whole entry): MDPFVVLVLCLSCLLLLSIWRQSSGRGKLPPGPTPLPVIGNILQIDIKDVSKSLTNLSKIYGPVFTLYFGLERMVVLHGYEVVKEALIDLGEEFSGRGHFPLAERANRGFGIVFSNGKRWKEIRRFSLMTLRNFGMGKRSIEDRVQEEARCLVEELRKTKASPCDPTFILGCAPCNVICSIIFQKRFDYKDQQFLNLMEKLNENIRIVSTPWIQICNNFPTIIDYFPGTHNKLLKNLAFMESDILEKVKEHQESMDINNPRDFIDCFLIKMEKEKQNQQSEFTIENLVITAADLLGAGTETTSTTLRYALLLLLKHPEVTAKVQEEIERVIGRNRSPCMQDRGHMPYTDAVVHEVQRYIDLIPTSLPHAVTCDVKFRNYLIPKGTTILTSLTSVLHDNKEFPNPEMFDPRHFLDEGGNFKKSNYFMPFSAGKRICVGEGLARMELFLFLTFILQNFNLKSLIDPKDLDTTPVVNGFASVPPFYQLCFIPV
# Sequence of Cytochrome P450 2C9 (P11712 whole entry): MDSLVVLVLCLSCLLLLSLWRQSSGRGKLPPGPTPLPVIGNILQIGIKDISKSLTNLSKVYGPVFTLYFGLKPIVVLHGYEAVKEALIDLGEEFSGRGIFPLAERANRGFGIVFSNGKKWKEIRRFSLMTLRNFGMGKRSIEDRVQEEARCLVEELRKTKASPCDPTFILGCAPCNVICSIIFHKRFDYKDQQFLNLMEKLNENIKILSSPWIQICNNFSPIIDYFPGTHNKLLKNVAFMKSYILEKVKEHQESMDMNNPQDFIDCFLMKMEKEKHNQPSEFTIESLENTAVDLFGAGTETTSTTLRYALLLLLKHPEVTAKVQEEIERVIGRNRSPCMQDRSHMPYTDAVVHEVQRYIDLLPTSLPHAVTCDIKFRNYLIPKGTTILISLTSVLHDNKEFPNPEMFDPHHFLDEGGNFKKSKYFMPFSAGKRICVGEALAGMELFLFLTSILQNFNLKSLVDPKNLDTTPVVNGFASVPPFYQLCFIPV
compound,measurement,setting,value
Cn1cccc1C(=O)N1CCC[C@@]2(CCN(C(c3ccccc3)c3ccccc3)C2)C1,AC50,[1],39.8 µM (inconclusive)
same,AC50,[2]; read-out: AC50,25.1 µM (inconclusive)
COc1cc2c(cc1OC)CN(C(=O)COc1ccc(C)c(C)c1)CC2,EC50,[3],2.93 µM (active)
same,EC50,[4],> 60 µM (not active)
CCC1CCCCN1c1cc(C)nc2cc(-c3cccc(C)c3)nn12 (stereo not drawn),EC50,[5],13.7 µM (active)
same,EC50,[6],15.3 µM (active)
same,EC50,[7],6.17 µM (active)
Cc1c(C(=O)OC(C)CCN(C)C)oc2ccccc12 (stereo not drawn),EC50,[3],0.574 µM (active)
same,EC50,[4],> 30 µM (not active)
O=C(NNC(=S)NC(=O)c1cccnc1)c1ccc(Cl)cc1,EC50,[5],11.4 µM (active)
same,EC50,[7],5.07 µM (active)
CCn1ccnc1CN(C)Cc1cn(-c2ccc(C)cc2)nc1-c1cccc(C)c1,EC50,[3],1.92 µM (active)
same,EC50,[4],> 60 µM (not active)
CC(C)(CN1CCN(C(c2ccccc2)c2ccccc2)CC1)NS(=O)(=O)c1ccccc1,EC50,[3],1.7 µM (active)
same,EC50,[4],> 60 µM (not active)
Cc1[nH]c2ccc(F)cc2c1CCN(Cc1cccnc1)C(S)=NC(C)(C)C,EC50,[3],0.577 µM (active)
same,EC50,[4],> 60 µM (not active)
Oc1ccc(Br)cc1/C=N/Nc1ncc(-c2ccccc2)cn1,EC50,[5],2.68 µM (active)
same,EC50,[7],1.51 µM (active)
COc1ccc(N/C=C2/Sc3ccccc3NC2=O)cc1,EC50,[3],1.22 µM (active)
same,EC50,[4],> 30 µM (not active)
FC(F)(F)c1cccc(NC(S)=NN=C(S)Nc2cccc(C(F)(F)F)c2)c1,EC50,[5],4.04 µM (active)
same,EC50,[7],1.65 µM (active)
Clc1ccc2c(c1)C=Nc1c(NCc3ccccc3)ncnc1O2,AC50,[8],0.631 µM (inconclusive)
CCCN(CCO)Cc1ccc(F)c(Br)c1,AC50,[8],15.8 µM (inconclusive)
same,AC50,[1],0.126 µM (inconclusive)
Cc1cc(Br)ccc1OCCN1CCCC1,EC50,[3],0.651 µM (active)
same,EC50,[4],58.7 µM (active)
O=C(NNc1ccccc1Cl)C(O)(c1cccc(C(F)(F)F)c1)c1cccc(C(F)(F)F)c1,EC50,[5],17.4 µM (active)
same,EC50,[6],3.16 µM (active)
same,EC50,[7],2.65 µM (active)
CCC(=O)OCN1C(=O)C=CC1=O,AC50,[2]; read-out: AC50,0.002 µM (inconclusive)
COC(=O)c1[nH]c2cc(OC)ccc2c1NC(=O)CCN1CCSCC1,AC50,[1],22.4 µM (inconclusive)
CC1CCN(CCCCOc2ccccc2[N+](=O)[O-])CC1,AC50,[2]; read-out: AC50,15.8 µM (inconclusive)
O=C(NCC1CCN(Cc2ccccc2Cl)CC1)Nc1cccc(Cl)c1,EC50,[5],> 150 µM (not active)
same,EC50,[6],49.3 µM (active)
same,EC50,[7],> 150 µM (not active)
CC(CC(=O)O)(CC(=O)O)c1ccccc1,AC50,[2],inconclusive
Cc1ccccc1OCCn1cnc2cc([N+](=O)[O-])ccc2c1=O,EC50,[3],0.615 µM (active)
same,EC50,[4],> 30 µM (not active)
C[N+](C)(CCCCCC[N+](C)(C)CCCN1C(=O)c2ccccc2C1=O)CCCN1C(=O)c2ccccc2C1=O,AC50,[8],31.6 µM (inconclusive)
same,AC50,[2]; read-out: AC50,31.6 µM (inconclusive)
CNCCCCCCCCSc1nc(C(C)C)ccc1C(=O)c1cccs1,AC50,[1],25.1 µM (inconclusive)
CC(=O)NC1(c2cccc(F)c2)CCN(CC(=O)NC(C)C)CC1,AC50,[2]; read-out: AC50,39.8 µM (inconclusive)
CC(C)CNc1nc(N)nc(O)c1NC=O,AC50,[2],inconclusive
CSc1ccccc1NC(=S)N/N=C/c1cccn1Cc1cccc(C)c1,EC50,[3],2.35 µM (active)
same,EC50,[4],> 60 µM (not active)
CC1=CC(C)(C)Nc2ccc(CSc3ccccc3)cc21,AC50,[8],0.501 µM (inconclusive)
COC(=O)[C@@]1(Cc2ccc(F)cc2)[C@H]2c3cc(C(=O)N4CCCC4)n(Cc4ccc(Cl)c(C(F)(F)F)c4)c3C[C@H]2CN1C(=O)c1ccccc1,AC50,[2]; read-out: AC50,31.6 µM (inconclusive)
CC1C(=O)C(C)C(c2ccc([N+](=O)[O-])cc2)NC1c1ccc([N+](=O)[O-])cc1 (stereo not drawn),EC50,[3],0.632 µM (active)
same,EC50,[4],> 30 µM (not active)
Cc1cc(Cl)ccc1OCC(=O)N/N=C1\CCCc2ccccc21,AC50,[8],2.51 µM (inconclusive)
same,AC50,[1],3.55 µM (inconclusive)
Cc1cccc(NC(=O)c2sc(Cl)nc2-c2ccccc2)c1,EC50,[5],19.3 µM (active)
same,EC50,[6],> 150 µM (not active)
same,EC50,[7],5 µM (active)
COc1cc(OC)cc(C(=O)NC(=S)N2CCN(c3ccc(C(F)(F)F)cc3[N+](=O)[O-])CC2)c1,EC50,[5],> 150 µM (not active)
same,EC50,[6],> 150 µM (not active)
same,EC50,[7],1.61 µM (active)
CC(=O)Nc1ccc(NC(=O)CSc2nnc(-c3ccccc3)n2Cc2ccc3c(c2)OCO3)cc1,AC50,[8],31.6 µM (inconclusive)
COc1ccc(CNc2ccnc(-c3ccc(C(=O)N(C)C)cc3)n2)c(OC)c1,AC50,[8],12.6 µM (inconclusive)
same,AC50,[2]; read-out: AC50,20 µM (inconclusive)
Cc1cc(C)c(-c2csc(NC(=O)c3cc([N+](=O)[O-])ccc3N3CCOCC3)n2)c(C)c1,EC50,[3],1.44 µM (active)
same,EC50,[4],> 30 µM (not active)
C=C1CCC2C(C)(C)[C@@H](O)CC[C@@]2(C)[C@@H]1COc1ccc2ccc(=O)oc2c1 (stereo partly drawn),EC50,[5],> 150 µM (not active)
same,EC50,[6],6.72 µM (active)
same,EC50,[7],9.27 µM (active)
O=C(O)CSCNC(=O)CC12CC3CC(CC(C3)C1)C2,AC50,[2]; read-out: AC50,28.2 µM (inconclusive)
O=C(Oc1cccc(Br)c1)c1cccnc1,AC50,[1],39.8 µM (inconclusive)
same,AC50,[2]; read-out: AC50,39.8 µM (inconclusive)
CCOC(=O)C1CCCN(C(=O)c2cc3nc(-c4ccc5c(c4)OCO5)cc(C(F)(F)F)n3n2)C1 (stereo not drawn),AC50,[8],25.1 µM (inconclusive)
Cc1cc(C)n2nc(C(=O)NCc3cccc(C(F)(F)F)c3)nc2n1,EC50,[3],> 60 µM (not active)
same,EC50,[4],> 60 µM (inconclusive)
Cc1nc2sccn2c(=O)c1Cl,AC50,[8],15.8 µM (inconclusive)
COc1cc(-c2nnc(SCC3(c4ccc(Br)cc4)OCCO3)o2)cc(OC)c1OC,AC50,[1],39.8 µM (inconclusive)
O=C(NCCc1c[nH]c2ccccc12)[C@@H]1C[C@H]1[C@@H](NP(=O)(c1ccccc1)c1ccccc1)c1ccccc1,AC50,[8],15.8 µM (inconclusive)
Cc1cc(N)n2ncc(-c3ccc(Cl)cc3)c2n1,AC50,[1],31.6 µM (inconclusive)
COc1ccccc1Nc1nc(N)nc(CSC(=S)N2CCN(c3ccccc3)CC2)n1,EC50,[3],2.57 µM (active)
same,EC50,[4],> 60 µM (not active)
Cc1cc(N)n(-c2ccccc2)n1,AC50,[8],31.6 µM (inconclusive)
same,AC50,[2]; read-out: AC50,2.24 µM (inconclusive)
NC[C@@H](O)CSCc1ccc(Cl)cc1,AC50,[2]; read-out: AC50,0.1 µM (inconclusive)
O=C(O)c1ccc(N/N=C/c2ccc(-c3ccc(Br)cc3)o2)cc1,EC50,[5],3.02 µM (active)
same,EC50,[7],4.26 µM (active)
CC(C)N1CCN(Cc2ccc3c(c2)Cc2ccccc2-3)CC1CCO (stereo not drawn),EC50,[3],0.532 µM (active)
same,EC50,[4],7.87 µM (active)
CCc1ccc(Nc2n[n+](-c3ccccc3)c(-c3ccc(OCc4ccccc4)cc3)s2)cc1,EC50,[3],2.01 µM (active)
same,EC50,[4],> 30 µM (not active)
COCCNc1nc(-c2cccc(OC)c2)nc2ccccc12,AC50,[2]; read-out: AC50,31.6 µM (inconclusive)
COc1ccc(-c2nc3cnc(Nc4ccccc4)nc3n(CCC#N)c2=O)cc1,AC50,[8],0.501 µM (inconclusive)
O=C(NCC(c1cccs1)N1CCOCC1)c1ccco1 (stereo not drawn),AC50,[1],22.4 µM (inconclusive)
COc1cccc(Cn2c(=O)c(C)nc3cnc(Oc4cccc(Cl)c4)nc32)c1,AC50,[8],25.1 µM (inconclusive)
COCCn1c(C)cc(C2=NN=C(Nc3ccc(F)cc3)SC2)c1C,AC50,[8],11.2 µM (inconclusive)
